Test results reported in patent US8435544B2, “Ophthalmic compositions comprising calcineurin inhibitors or mTOR inhibitors” (Lux Biosciences, Inc., priority 2007, dated 2013).

Legend:
[1] = Ocular distribution and pharmacokinetics of 14C-voclosporin in NZW rabbits; type: in vivo, New Zealand White (NZW) rabbits; conditions: for AUC / Cmax: bilateral ocular; for Cmax: Blood
Procedure: (§1) NZW rabbits (30 females/8 males) were used in a single dose (SD) and 7-day repeat dose (RD) study (see Table 38). DB rabbits (16 females) were used in a single dose study (see Table 39). […] Blood and ocular tissue radioactivity levels were assessed at designated time points via combustion followed by liquid scintillation counting.
(§2) At each sampling point, a t-test was used to compare the tissue concentrations within or between the two strains of rabbits. SigmaStat® 3.5 (Systat, Inc., San Jose, Calif.) was used for the statistical analyses (p<0.05). […] Pharmacokinetic analysis was performed using WinNonlin 5.2 (Pharsight, Corporation, Mountain View, Calif.). Cmax and Tmax, and where calculable AUC and t1/2, were reported.

[2] = Ocular distribution and pharmacokinetics of 14C-voclosporin in DB rabbits; type: in vivo, Dutch Belted (DB) rabbits
Procedure: as §1, §2

[3] = system: canine keratoconjunctivitis sicca (KCS); assay: Topical voclosporin clinical study in dogs with KCS; type: in vivo
From the text: The study covered assessment of tear production (as measured by the Schirmer Tear Test (STT)), the response of clinical observation of the cornea, and participating ophthalmologists' overall assessment of efficacy.
Dogs diagnosed with chronic (>3 months in duration) immune-mediated KCS were selected from the clinic populations of the North Carolina State Veterinary Teaching Hospital. Diagnosis of immune-mediated KCS was made by exclusion of other causes of KCS.
Physical and ophthalmic examinations were performed at 0, 7, 14, and 28 days.

[4] = topical mixed micellar composition

SMILES: C=CC=CCC(C)C(O)C1C(=O)NC(CC)C(=O)N(C)CC(=O)N(C)C(CC(C)C)C(=O)NC(C(C)C)C(=O)N(C)C(CC(C)C)C(=O)NC(C)C(=O)NC(C)C(=O)N(C)C(CC(C)C)C(=O)N(C)C(CC(C)C)C(=O)N(C)C(C(C)C)C(=O)N1C (stereo not drawn) [^14C-voclosporin]
- mortality, morbidity, clinical irritation ([1]; 35 μL of 0.2% 14C-voclosporin mixed micellar formulation, single or daily for 7 days, NZW and DB rabbits): No mortality, morbidity or evidence of clinical irritation
- AUC ([1]; Aqueous Humor, repeat dose (RD, QD for 7 days), female NZW rabbits): 96 hr * ng eq./g
- AUC ([1]; Aqueous Humor, single dose (SD), female NZW rabbits): 45 hr * ng eq./g
- Cmax ([1]; repeat dose (RD, QD for 7 days), female NZW rabbits): BQL (Below Quantifiable Limit (<0.1 ng/mL))
- Cmax ([1]; single dose (SD), female NZW rabbits): BQL (Below Quantifiable Limit (<0.1 ng/mL))
- AUC ([1]; Choroid/Retina, repeat dose (RD, QD for 7 days), female NZW rabbits): 897 hr * ng eq./g
- AUC ([1]; Choroid/Retina, single dose (SD), female NZW rabbits): 472 hr * ng eq./g
- AUC ([1]; Cornea, repeat dose (RD, QD for 7 days), female NZW rabbits): 54624 hr * ng eq./g
- AUC ([1]; Cornea, single dose (SD), female NZW rabbits): 23166 hr * ng eq./g
- AUC ([1]; Iris/Ciliary Body, repeat dose (RD, QD for 7 days), female NZW rabbits): 1952 hr * ng eq./g
- AUC ([1]; Iris/Ciliary Body, single dose (SD), female NZW rabbits): 382 hr * ng eq./g
- AUC ([1]; Lacrimal Gland, repeat dose (RD, QD for 7 days), female NZW rabbits): 1109 hr * ng eq./g
- AUC ([1]; Lacrimal Gland, single dose (SD), female NZW rabbits): 416 hr * ng eq./g
- AUC ([1]; Lens, repeat dose (RD, QD for 7 days), female NZW rabbits): 356 hr * ng eq./g
- AUC ([1]; Lens, single dose (SD), female NZW rabbits): 47 hr * ng eq./g
- AUC ([1]; Lower Bulbar Conjunctiva, repeat dose (RD, QD for 7 days), female NZW rabbits): 16585 hr * ng eq./g
- AUC ([1]; Lower Bulbar Conjunctiva, single dose (SD), female NZW rabbits): 12029 hr * ng eq./g
- AUC ([1]; Lower Eyelid, repeat dose (RD, QD for 7 days), female NZW rabbits): 358791 hr * ng eq./g
- AUC ([1]; Lower Eyelid, single dose (SD), female NZW rabbits): 207630 hr * ng eq./g
- AUC ([1]; Nictitating Membrane, repeat dose (RD, QD for 7 days), female NZW rabbits): 15964 hr * ng eq./g
- AUC ([1]; Nictitating Membrane, single dose (SD), female NZW rabbits): 12135 hr * ng eq./g
- AUC ([1]; Optic Nerve, repeat dose (RD, QD for 7 days), female NZW rabbits): 1805 hr * ng eq./g
- AUC ([1]; Optic Nerve, single dose (SD), female NZW rabbits): 569 hr * ng eq./g
- AUC ([1]; Sclera, repeat dose (RD, QD for 7 days), female NZW rabbits): 3825 hr * ng eq./g
- AUC ([1]; Sclera, single dose (SD), female NZW rabbits): 2646 hr * ng eq./g
- AUC ([1]; Submandibular Lymph Node, repeat dose (RD, QD for 7 days), female NZW rabbits): 1190 hr * ng eq./g
- AUC ([1]; Submandibular Lymph Node, single dose (SD), female NZW rabbits): 893 hr * ng eq./g
- AUC ([1]; Tear, repeat dose (RD, QD for 7 days), female NZW rabbits): 230878 hr * ng eq./g
- AUC ([1]; Tear, single dose (SD), female NZW rabbits): 168259 hr * ng eq./g
- AUC ([1]; Upper Bulbar Conjunctiva, repeat dose (RD, QD for 7 days), female NZW rabbits): 19944 hr * ng eq./g
- AUC ([1]; Upper Bulbar Conjunctiva, single dose (SD), female NZW rabbits): 14782 hr * ng eq./g
- AUC ([1]; Upper Eyelid, repeat dose (RD, QD for 7 days), female NZW rabbits): 98656 hr * ng eq./g
- AUC ([1]; Upper Eyelid, single dose (SD), female NZW rabbits): 114651 hr * ng eq./g
- AUC ([1]; Vitreous Humor, repeat dose (RD, QD for 7 days), female NZW rabbits): 23 hr * ng eq./g
- AUC ([1]; Vitreous Humor, single dose (SD), female NZW rabbits): 27 hr * ng eq./g
- concentrations in remaining ocular tissues ([1]; after a single dose): 20-223 ng eq/g tissue
- lowest concentrations of radioactivity in ocular tissues ([1]; after a single dose, aqueous and vitreous humor, and the lens): 1-11 ng eq/g tissue
- highest concentrations of radioactivity in ocular tissues ([1]; after a single dose, eyelids, conjunctiva, cornea, nictitating membrane and tears): > 1 mg eq/g tissue
- Blood levels ([1]; after ocular application): at the lower limit of quantification (LLOQ)
- concentrations of radioactivity in all ocular tissues except lens, aqueous humor, vitreous humor ([1]; after single and repeat ocular applications): ≥ 10 ng eq/g tissue
- blood radioactivity ([1]; all but one blood sample below LLOQ): < 3.06 ng eq/mL
- concentrations in target tissues (conjunctiva, cornea, lacrimal gland) at 24 hours ([1]; once daily ocular applications for 7 days): remained at therapeutic levels even at the 24-hour mark
- change in t1/2 on repeat dosing ([1]; repeat dosing up to 7 days, lower bulbar conjunctiva, nictitating membrane, upper bulbar conjunctiva): no apparent change
- levels in all ocular tissues except aqueous/vitreous humor and lens ([1]; single dose administration): higher than 10 ng equivalent drug/gram tissue
- distribution to the contralateral, non-treated eye ([1]; unilateral dosing): minimal distribution
- AUC ([2]; Aqueous Humor, single dose, bilateral ocular, female DB rabbits): 56 hr * ng eq./g
- Cmax ([2]; Blood, single dose, bilateral ocular, female DB rabbits): BQL (Below Quantifiable Limit (<0.1 ng/mL))
- AUC ([2]; Choroid/Retina, single dose, bilateral ocular, female DB rabbits): 92 hr * ng eq./g
- AUC ([2]; Cornea, single dose, bilateral ocular, female DB rabbits): 27844 hr * ng eq./g
- AUC ([2]; Iris/Ciliary Body, single dose, bilateral ocular, female DB rabbits): 541 hr * ng eq./g
- AUC ([2]; Lacrimal Gland, single dose, bilateral ocular, female DB rabbits): 335 hr * ng eq./g
- AUC ([2]; Lens, single dose, bilateral ocular, female DB rabbits): 26 hr * ng eq./g
- AUC ([2]; Lower Bulbar Conjunctiva, single dose, bilateral ocular, female DB rabbits): 13107 hr * ng eq./g
- AUC ([2]; Lower Eyelid, single dose, bilateral ocular, female DB rabbits): 512473 hr * ng eq./g
- AUC ([2]; Nictitating Membrane, single dose, bilateral ocular, female DB rabbits): 13091 hr * ng eq./g
- AUC ([2]; Optic Nerve, single dose, bilateral ocular, female DB rabbits): 1127 hr * ng eq./g
- AUC ([2]; Sclera, single dose, bilateral ocular, female DB rabbits): 3502 hr * ng eq./g
- AUC ([2]; Submandibular Lymph Node, single dose, bilateral ocular, female DB rabbits): 635 hr * ng eq./g
- AUC ([2]; Tear, single dose, bilateral ocular, female DB rabbits): 262299 hr * ng eq./g
- AUC ([2]; Upper Bulbar Conjunctiva, single dose, bilateral ocular, female DB rabbits): 14296 hr * ng eq./g
- AUC ([2]; Upper Eyelid, single dose, bilateral ocular, female DB rabbits): 68063 hr * ng eq./g
- AUC ([2]; Vitreous Humor, single dose, bilateral ocular, female DB rabbits): 16 hr * ng eq./g
- ocular tissue concentrations (e.g., Cmax) versus NZW rabbits (melanin binding) ([2]; single dose to DB rabbits): not significantly different from NZW rabbits

SMILES: C=C/C=C/C[C@@H](C)[C@@H](O)[C@H]1C(=O)N[C@@H](CC)C(=O)N(C)CC(=O)N(C)[C@@H](CC(C)C)C(=O)N[C@@H](C(C)C)C(=O)N(C)[C@@H](CC(C)C)C(=O)N[C@@H](C)C(=O)N[C@H](C)C(=O)N(C)[C@@H](CC(C)C)C(=O)N(C)[C@@H](CC(C)C)C(=O)N(C)[C@@H](C(C)C)C(=O)N1C [voclosporin, reference compound]
- adverse effects ([3]; 30 days treatment period, 0.2 wt % voclosporin topically every 12 hours): No adverse effects were noted
- maintenance of STT ([3]; dogs with KCS, 30 days): maintained the STT in these dogs for 30 days
- tissue accumulation ([1]; after multiple dosing): minimal tissue accumulation
- tissue levels at 24 hours ([1]; single (1 day) topical dose, female NZW rabbits): Therapeutic levels of voclosporin were noticed even at the 24-hour mark
- level in the choriod/retina [1, 4]: high levels
- level in the vitreous humor [1, 4]: low levels
